≈ marks a conversion by molar mass, not a printed value. Structures can show the parent of a compound that is named as a salt. Where two headings read alike, the source gives them in different places.
Assays:
[1] = tested on: T1, Class C beta-lactamase, E. coli M50 (CMY/DHA); format: biochemical; conditions: read-out: Beta-lactamase enzyme inhibition IC50
T1 construct: no borders, tags or purification printed
Procedure: (§1) Determination of enzyme inhibition activity: Concentration of the inhibitor required to inhibit 50% of enzymatic activity was measured by adding a chromogenic substrate, Nitrocefin (100 uM, 5 min) to the preincubated mixture of crude enzyme and the agents (37° C., 10 min). Absorbance was measured at 485 nm by UV-spectrophotometer. The IC50 was calculated by plotting absorbance against concentration through Sigmoidal dose response curve using Graph Pad software.
(§2) The enzyme inhibition was expressed as IC50.

[2] = tested on: K. pneumoniae H521 (KPC, SHV, TEM); assay: Antibacterial activity, MIC by agar dilution (CLSI); format: cell-based; conditions: Table 2, K. pneumoniae H521 (KPC, SHV, TEM)
Procedure: (§3) The biological activity of representative compounds according to the invention against various bacterial strains was investigated. In a typical study, overnight grown bacterial cultures were diluted appropriately and inoculated on the agar media containing doubling dilutions of the test compounds. Observations for growth or no growth was performed after 16-20 hours of incubation at 35±2° C. in the ambient air. The overall procedure was performed as per Clinical and Laboratory Standards Institute (CLSI) recommendations, (Clinical and Laboratory Standards Institute (CLSI), Performance Standards for Antimicrobial Susceptibility Testing, 20th Informational Supplement, M07-A9, Volume 32, No. 2, 2012). Molten Mueller Hinton Agar (BD, USA) containing serial dilutions of each antibacterial agent were poured on to the plates and allowed to solidify. Appropriate suspensions from the freshly grown cultures were prepared in normal saline so that about 10^4 CFU/spot of the organism was delivered on to the drug containing agar plates using automated multipoint inoculator (Mast, UK). The plates were incubated in Biochemical oxygen demand (BOD) incubator at 37° C. for 18 hours and then examined for growth.
(§4) The strains selected for study included E. coli NCTC 13353 producing CTX-M15 and OXA-1 beta-lactamase enzymes; K. pneumoniae H521 producing KPC, SHV, TEM beta-lactamase enzymes; and K. pneumoniae S48 producing NDM, SHV, TEM beta-lactamase enzymes. The activities are expressed as Minimum Inhibitory Concentrations (MICs) (mcg/ml).

[3] = tested on: E. coli NCTC 13353 (CTX-M15, OXA-1); assay: as above; format: cell-based; conditions: E. Coli NCTC 13353 (CTX-M15, OXA-1)
Procedure: as §3
as §4, with “Table 2 details the antibacterial activity of representative compounds according to invention, against various Multi Drug Resistant (MDR) Gram-negative bacterial strains. The strains” for “The strains”

[4] = biological target: T2, Class D beta-lactamase, A. baumannii NCTC 13301 (OXA 23) (Acinetobacter baumannii, UniProt Q9L4P2); assay: Beta-lactamase enzyme inhibition (nitrocefin, crude enzyme); format: biochemical; conditions: Class D A. baumannii NCTC 13301 (OXA 23); read-out: Beta-lactamase enzyme inhibition IC50
T2 construct: preincubated mixture of crude enzyme and the agents; endogenous in cells; host or cells: A. baumannii NCTC 13301
T2 sequence (Q9L4P2 18-273): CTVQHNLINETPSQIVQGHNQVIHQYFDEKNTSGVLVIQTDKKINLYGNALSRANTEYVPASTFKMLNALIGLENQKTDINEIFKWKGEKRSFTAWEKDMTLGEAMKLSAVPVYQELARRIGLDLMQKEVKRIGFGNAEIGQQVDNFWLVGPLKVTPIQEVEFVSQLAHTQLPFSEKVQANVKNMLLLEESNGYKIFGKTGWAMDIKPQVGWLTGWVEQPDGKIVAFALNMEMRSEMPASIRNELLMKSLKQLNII
Procedure: as §1, §2

[5] = tested on: K. pneomoniae S48 (NDM, SHV, TEM); assay: Antibacterial activity, MIC by agar dilution (CLSI); format: cell-based, K. pneumoniae; conditions: Table 2, K. pneomoniae S48 (NDM, SHV, TEM)
Procedure: as §3, §4

[6] = biological target: T3, Class A beta-lactamase, K. pneumoniae ATCC 700603 (SHV 18) (Klebsiella pneumoniae, UniProt P0AD64, E235K/G234A/R39S); assay: biochemical
T3 construct: preincubated mixture of crude enzyme and the agents; endogenous in cells; host or cells: K. pneumoniae ATCC 700603
T3 sequence (P0AD64 22-286 R39S/G234A/E235K): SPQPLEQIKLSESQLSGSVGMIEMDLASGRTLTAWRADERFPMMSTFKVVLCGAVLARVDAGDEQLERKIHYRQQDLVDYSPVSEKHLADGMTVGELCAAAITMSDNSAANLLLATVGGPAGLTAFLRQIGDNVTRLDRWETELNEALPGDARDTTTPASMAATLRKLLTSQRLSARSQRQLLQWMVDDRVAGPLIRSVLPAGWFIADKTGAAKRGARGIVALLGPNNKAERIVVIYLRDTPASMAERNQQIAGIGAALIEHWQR
Procedure: as §1, §2

[7] = Klebsiella pneumoniae, read-out: MIC
[8] = Escherichia coli, NCTC13353, Table 2, read-out: MIC
[9] = Klebsiella pneumoniae, 18 h, read-out: MIC
[10] = Escherichia coli, NCTC13353, 18 h, Table 2, read-out: MIC

Row | Compound | IC50 [1] [nM] | MIC [2, 7] [µg/mL] | MIC [3, 8] [µg/mL] | IC50 [4] [nM] | MIC [5, 7] [µg/mL] | IC50 [6] [nM] | MIC [2] [µg/mL] | MIC ([3]; Table 2) [µg/mL] | MIC [5] [µg/mL] | IC50 ([6]; Class A K. pneumoniae ATCC 700603 (SHV 18), read-out: Beta-lactamase enzyme inhibition IC50) [nM] | MIC [2, 9] [µg/mL] | MIC [3, 10] [µg/mL] | MIC [5, 9] [µg/mL]
1 | O=C(O)[C@H]1/C(=C/CO)O[C@@H]2CC(=O)N21 [Clavulanic acid, clavulanic acid, reference compound] | > 10000 |  |  |  |  |  |  |  |  |  |  |  | 
2 | O=C(Cc1ccc(O[C@H]2CCNC2)cc1F)NNC(=O)[C@@H]1CC[C@@H]2CN1C(=O)N2OS(=O)(=O)O [Example 47, (2S,5R)-sulfuric acid mono-[2-(N′-{2-[2-fluoro-4-((S)-pyrrolidin-3-oxy)-phenyl]-acetyl}-hydrazinocarbonyl)-7-oxo-1,6-diaza-bicyclo[3.2.1]oct-6-yl]ester] | 77 | 2 (≈ 3.99 µM) | 1 (≈ 1.99 µM) | 842 | 0.5 (≈ 0.997 µM) | 15.1 |  |  |  |  |  |  | 
3 | NCCCOc1cccc(CC(=O)NNC(=O)[C@@H]2CC[C@@H]3CN2C(=O)N3OS(=O)(=O)O)c1 [Example 35, (2S,5R)-sulfuric acid mono-[2-(N′-{2-[3-(3-amino-propoxy)-phenyl]-acetyl}-hydrazinocarbonyl)-7-oxo-1,6-diaza-bicyclo[3.2.1]oct-6-yl]ester] | 38 | 1 (≈ 2.12 µM) | 0.5 (≈ 1.06 µM) | 1910 | 0.5 (≈ 1.06 µM) | 712 |  |  |  |  |  |  | 
4 | CC(C)[C@@H](N)COc1ccc(CC(=O)NNC(=O)[C@@H]2CC[C@@H]3CN2C(=O)N3OS(=O)(=O)O)c(F)c1 [Example 46, (2S,5R)-sulfuric acid mono-[2-(N′-{2-[2-fluoro-4-((R)-2-amino-3-methyl-butoxy)-phenyl]-acetyl}-hydrazinocarbonyl)-7-oxo-1,6-diaza-bicyclo[3.2.1]oct-6-yl]ester] | 266 | 4 (≈ 7.73 µM) | 2 (≈ 3.86 µM) | 4100 | 4 (≈ 7.73 µM) | 79 |  |  |  |  |  |  | 
5 | NCCOc1ccc(CC(=O)NNC(=O)[C@@H]2CC[C@@H]3CN2C(=O)N3OS(=O)(=O)O)cc1 [Example 30, (2S,5R)-sulfuric acid mono-[2-(N′-{2-[4-(2-amino-ethoxy)-phenyl]-acetyl}-hydrazinocarbonyl)-7-oxo-1,6-diaza-bicyclo[3.2.1]oct-6-yl]ester] | 36 | 2 (≈ 4.37 µM) | 0.5 (≈ 1.09 µM) | 451 | 0.5 (≈ 1.09 µM) | 7 |  |  |  |  |  |  | 
6 | O=C(Cc1cccc(OC[C@@H]2CCCN2)c1)NNC(=O)[C@@H]1CC[C@@H]2CN1C(=O)N2OS(=O)(=O)O [Example 58, (2S,5R)-sulfuric acid mono-[2-(N′-{2-[3-((S)-pyrrolidin-2-ylmethoxy)-phenyl]-acetyl}-hydrazinocarbonyl)-7-oxo-1,6-diaza-bicyclo[3.2.1]oct-6-yl]ester] | 37 | 2 (≈ 4.02 µM) | 1 (≈ 2.01 µM) | 1470 | 0.5 (≈ 1 µM) | 53 |  |  |  |  |  |  | 
7 | NCCOc1cccc(CC(=O)NNC(=O)[C@@H]2CC[C@@H]3CN2C(=O)N3OS(=O)(=O)O)c1 [Example 32, (2S,5R)-sulfuric acid mono-[2-(N′-{2-[3-(2-amino-ethoxy)-phenyl]-acetyl}-hydrazinocarbonyl)-7-oxo-1,6-diaza-bicyclo[3.2.1]oct-6-yl]ester] | 33 | 0.5 (≈ 1.09 µM) | 0.5 (≈ 1.09 µM) | 1770 | 0.5 (≈ 1.09 µM) | 76 |  |  |  |  |  |  | 
8 | C[C@@H](N)COc1ccc(CC(=O)NNC(=O)[C@@H]2CC[C@@H]3CN2C(=O)N3OS(=O)(=O)O)cc1 [Example 49, (2S,5R)-sulfuric acid mono-[2-(N′-{2-[4-((R)-2-amino-propoxy)-phenyl]-acetyl}-hydrazinocarbonyl)-7-oxo-1,6-diaza-bicyclo[3.2.1]oct-6-yl]ester] | 47 | 1 (≈ 2.12 µM) | 0.5 (≈ 1.06 µM) | 542 | 0.5 (≈ 1.06 µM) | 112 |  |  |  |  |  |  | 
9 | CC(OC(=O)NCCOc1ccccc1CC(=O)NNC(=O)[C@@H]1CC[C@@H]2CN1C(=O)N2OS(=O)(=O)[O-])OC(=O)C(C)C.[Na+] (stereo partly drawn) [Example 65, sodium salt of isobutyric acid 1-[2-(2-{2-oxo-2-[N′-((2S,5R)-6-sulphooxy-7-oxo-1,6-diaza-bicyclo[3.2.1]octane-2-carbonyl)-hydrazino]-ethyl}-phenoxy)-ethylcarbamoyloxy]-ethyl ester] | 5 |  |  | 537 |  |  | >32 | >32 | >32 | 8 |  |  | 
10 | CC(C)[C@H](N)COc1ccc(CC(=O)NNC(=O)[C@@H]2CC[C@@H]3CN2C(=O)N3OS(=O)(=O)O)cc1 [Example 54, (2S,5R)-sulfuric acid mono-[2-(N′-{2-[4-((S)-2-amino-3-methyl-butoxy)-phenyl]-acetyl}-hydrazinocarbonyl)-7-oxo-1,6-diaza-bicyclo[3.2.1]oct-6-yl]ester] | 40 | 8 (≈ 16 µM) | 1 (≈ 2 µM) | 625 | 1 (≈ 2 µM) | 37 |  |  |  |  |  |  | 
11 | sodium salt of (2S,5R)-sulfuric acid mono-[2-(N′-(3,3-diphenyl-propionyl)-hydrazinocarbonyl)-7-oxo-1,6-diaza-bicyclo[3.2.1]oct-6-yl]ester [Example 7] | 14 |  |  | 89 |  |  | >32 | >32 | >32 |  |  |  | 
12 | sodium salt of (2S,5R)-succinic acid tert-butyl ester 4-{2-oxo-2-[N′-(7-oxo-6-sulphooxy-1,6-diaza-bicyclo[3.2.1]octane-2-carbonyl)-hydrazino]ethyl}-phenyl ester [Example 27] | 14 |  |  | 498 |  |  |  | 2 | 8 |  |  |  | 
13 | Nc1ccc(CC(=O)NNC(=O)[C@@H]2CC[C@@H]3CN2C(=O)N3OS(=O)(=O)O)c(F)c1 [Example 17, (2S,5R)-sulfuric acid mono-[2-(N′-(4-amino-2-fluorophenyl-acetyl)-hydrazinocarbonyl)-7-oxo-1,6-diaza-bicyclo[3.2.1]oct-6-yl]ester] | 14 | 4 (≈ 9.27 µM) | 1 (≈ 2.32 µM) | 194 | 1 (≈ 2.32 µM) |  |  |  |  |  |  |  | 
14 | CN(C)c1ccc(CC(=O)NNC(=O)[C@@H]2CC[C@@H]3CN2C(=O)N3OS(=O)(=O)O)cc1 [Example 13, sodium salt of (2S,5R)-sulfuric acid mono-[2-(N′-(4-N,N-dimethylaminophenyl-acetyl)-hydrazinocarbonyl)-7-oxo-1,6-diaza-bicyclo[3.2.1]oct-6-yl]ester] |  |  |  | 629 |  | 62 |  |  |  |  | > 32 | 8 | 8
15 | CNCCOc1ccccc1CC(=O)NNC(=O)[C@@H]1CC[C@@H]2CN1C(=O)N2OS(=O)(=O)O [Example 36, (2S,5R)-sulfuric acid mono-[2-(N′-{2-[2-(2-N-methylamino-ethoxy)-phenyl]-acetyl}-hydrazinocarbonyl)-7-oxo-1,6-diaza-bicyclo[3.2.1]oct-6-yl]ester] |  |  |  | 2170 |  | 71 |  |  |  |  | 2 (≈ 4.24 µM) | 1 (≈ 2.12 µM) | 1 (≈ 2.12 µM)
16 | O=C(CCc1ccccc1)NNC(=O)[C@@H]1CC[C@@H]2CN1C(=O)N2OS(=O)(=O)O [Example 5] |  |  |  | 600 |  | 9 |  |  |  |  | > 32 | 8 (≈ 19.4 µM) | 8 (≈ 19.4 µM)

Reference: patent publication US9822115B2, “Nitrogen containing compounds and their use as antibacterial agents” (WOCKHARDT LIMITED, priority 2014, dated 2017)
